Measured values reported in US12071438B2, “Crystal forms of an ALK2 inhibitor” (Keros Therapeutics, Inc., priority 2018, dated 2024).

Columns and labels:
Assay type in all cases: physicochemical
[1] = 97% RH stress in polymorph screening study; conditions: RT, no solvent
XRPD analysis after DVS = conditions: post-DVS
Method: X-ray powder diffraction (XRPD) patterns were collected on a Bruker D8 diffractometer using Cu Kα radiation (40 kV, 40 mA), θ-2θ goniometer and divergence of 0.6 mm and receiving slits, and a Lynxeye detector. The instrument is performance checked using a certified Corundum standard (NIST 1976). The software used for data collection was Diffrac Plus XRD Commander v2.6.1 and the data were analyzed and presented using Materials Data Jade Software v 9.7.0. Samples were prepared by transferring 2 to 50 mg of sample to a zero background holder coated with a thin layer of petroleum jelly and leveled with a glass plate and analyzed at ambient temperature. The sample was rotated in its own plane during analysis.
(§1) Dynamic vapor sortion/desportion (DVS) analysis was conducted with a Hiden Isochema, IGAsorp, s/n IGSA 126. Samples were loaded in to a tared basket on the instrument and dried for 1 hour at 40° C. Samples were then analyzed at 25° C. with the following percent relative humidity (% RH) steps: Adsorption (% RH): 0.0, 10.0, 20.0, 30.0, 40.0, 50.0, 60.0, 70.0, 80.0, 90.0, 95.0, Desorption (% RH): 90.0, 80.0, 70.0, 60.0, 50.0, 40.0, 30.0, 20.0, 10.0, 0.0.

[2] = Dynamic vapor sorption/desorption (DVS); conditions: for hygroscopicity by DVS / DVS weight gain and loss: 25° C.; for hygroscopicity by DVS: 0-95% RH; for DVS weight gain and loss: adsorption 0-95% RH, desorption to 0% RH
Method: as §1

[3] = Form A and Form B competitive slurries (thermodynamically stable polymorph)
Method: To determine the thermodynamically stable polymorph between anhydrous Forms A and B, competitive slurries were conducted in three different solvent systems: ethanol, tetrahydrofuran, and 2-butanone (MEK)/water (95:5). Ethanol and tetrahydrofuran were chosen based on the solubility of the material. MEK was chosen as a potential process solvent and water was added to boost the solubility.
Thus, additional competitive slurries were conducted in three additional solvent systems: ethanol/heptane (1:5), ethyl acetate/water (97:3), and isopropanol/water (99:1). The ethanol/heptane system was evaluated at −15° C., 5° C., ambient (RT), and 40° C. The water containing systems were only evaluated at ambient temperature. The slurries were conducted for 7 days instead of 5 days, as done in the above slurries. Form D was also included in the competitive slurries containing water.

Structure (SMILES) | XRPD after DVS analysis (form change) (XRPD analysis after DVS) | hygroscopicity by DVS [2] | DVS weight gain and loss [2] [%] | further results
COc1cc2c(-c3cnn4cc(N5CCC(N6CCN(C)CC6)CC5)cnc34)ccnc2cc1F |  |  |  | XRPD Result [1]: Form C,
COc1cc2c(-c3cnn4cc(N5CCC(N6CCN(C)CC6)CC5)cnc34)ccnc2cc1F [compound of Formula I free base, 7-fluoro-6-methoxy-4-(6-(4-(4-methylpiperazin-1-yl)piperidin-1-yl)pyrazolo[1,5-a]pyrimidin-3-yl)quinoline] | No change | non-hygroscopic | 0.5 | 
COc1cc2c(-c3cnn4cc(N5CCC(N6CCN(C)CC6)CC5)cnc34)ccnc2cc1F [Form B] | consistent with Form B | slightly hygroscopic | 12 | moisture gain onset in DVS ([2]; low relative humidities): begins immediately even at low relative humidities
COc1cc2c(-c3cnn4cc(N5CCC(N6CCN(C)CC6)CC5)cnc34)ccnc2cc1F [Form C] |  |  |  | thermodynamic stability at high water activity ([3]; high water activity (97:3 EtOAc/water)): more favored
COc1cc2c(-c3cnn4cc(N5CCC(N6CCN(C)CC6)CC5)cnc34)ccnc2cc1F [Form A] | becomes highly disordered and converts to the hydrate, Form C | hygroscopic | 38 | polymorph stability over time (competitive slurries) ([3]; 40° C. down to −15° C., 7 days versus 5 days): most stable polymorph; thermodynamic stability at low water activity ([3]; low water activity (99:1 IPA/water)): most thermodynamically stable; hygroscopicity by DVS below 80% RH ([2]; below 80% RH): non-hygroscopic
